The values below are quoted from earlier work in article PMC5862408, “CCR2 antagonism leads to marked reduction in proteinuria and glomerular injury in murine models of focal segmental glomerulosclerosis (FSGS)” (PLoS ONE, 2018).

This data set concerns diabetic nephropathy patients. The following applies: 52 weeks of treatment; cited from earlier work.

For the compound `Cc1cnc(C(=O)c2ncnc3[nH]ccc23)c(NS(=O)(=O)c2ccc(Cl)c(C(F)(F)F)c2)c1` [CCX140-B], the proteinuria entry is “decreased and sustained reduction of proteinuria”.
